Measurements from the NIST ThermoML archive (doi:10.1016/j.jct.2008.01.014).
± gives the expanded uncertainty stated by the source.

Conditions: Liquid, Ebulliometric method (Recirculating still)

Row | SMILES | vapor or sublimation pressure (273.15 K) [kPa] | vapor or sublimation pressure (288.15 K) [kPa] | vapor or sublimation pressure (303.15 K) [kPa] | vapor or sublimation pressure (318.15 K) [kPa] | vapor or sublimation pressure (333.15 K) [kPa] | vapor or sublimation pressure (348.15 K) [kPa]
1 | CC(F)(F)F [1,1,1-trifluoroethane] | 626 ± 3 | 972 ± 4 | 1442 ± 6 | 2063 ± 9 | 2875 ± 12 | –
2 | C=C(C)C [2-methylpropene] | 133 ± 2 | 224 ± 2 | 353 ± 2 | 538 ± 3 | 787 ± 4 | 1110 ± 5
